This note sets out measurements from US20020142993A1, “Pharmaceutically acceptable salts of bicyclic compounds” (DR. REDDY'S LABORATORIES LTD., priority 2000, published 2002).

Series [1] deals with T1, hPPARα (Homo sapiens, UniProt Q07869).
T1 construct: expressed in transfected cells; host or cells: HEK-293
T1 sequence (Q07869 239-466 limits assumed): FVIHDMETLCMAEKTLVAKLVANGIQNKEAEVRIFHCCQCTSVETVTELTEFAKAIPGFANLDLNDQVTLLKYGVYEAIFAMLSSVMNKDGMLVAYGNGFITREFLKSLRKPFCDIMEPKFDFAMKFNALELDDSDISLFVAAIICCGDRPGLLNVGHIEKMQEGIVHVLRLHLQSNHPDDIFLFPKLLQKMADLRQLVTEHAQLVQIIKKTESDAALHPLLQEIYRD
The series is described as follows: Determination of hPPARα activity (GAL4-LBD luciferase reporter in HEK-293 cells). The format is cell-based. The note with it: 50 μM compound, transfected HEK-293 cells. How it is done: a) Determination of hPPARα Activity
Ligand binding domain of hPPARα was fused to DNA binding domain of Yeast transcription factor GAL4 in eucaryotic expression vector. Using superfect (Qiagen, Germany) as transfecting reagent HEK-293 cells were transfected with this plasmid and a reporter plasmid harboring the luciferase gene driven by a GAL4 specific promoter. Compound was added at different concentrations after 42 hrs of transfection and incubated overnight. Luciferase activity as a function of compound binding/activation capacity of PPARα was measured using Packard Luclite kit (Packard, USA) in Top Count (Ivan Sadowski, Brendan Bell, Peter Broag and Melvyn Hollis. Gene. 1992. 118: 137 -141; Superfect Transfection Reagent Handbook. February 1997, Qiagen, Germany).
A general note: A reporter such as luciferase makes a cellular process visible.

Series [2] relates to Swiss albino mice. The series can be described thus: Plasma triglyceride and total cholesterol lowering activity in Swiss albino mice and guinea pigs. It is filed as in vivo, mouse. The note with it: dose 3 mg/kg, oral, 6 days. How it is done:
c) Plasma Triglyceride and Total Cholesterol Lowering Activity in Swiss Albino Mice and Guinea Pigs
Male Swiss albino mice (SAM) and male Guinea pigs were obtained from NIN and housed in DRF animal house. All these animals were maintained under 12 hour light and dark cycle at 25±1° C. Animals were given standard laboratory chow (NIN, Hyderabad, India) and water, ad libitum. SAM of 20-25 g body weight range and Guinea pigs of 500-700 g body weight range were used (Oliver, P., Plancke, M. O., Marzin, D., Clavey, V., Sauzieres, J and Fruchart, J. C. Effects of fenofibrate, gemfibrozil and nicotinic acid on plasma lipoprotein levels in normal and hyperlipidemic mice. Atherosclerosis. 1988. 70: 107-114).
The test compounds were administered orally to Swiss albino mice at 0.3 to 30 mg/kg/day dose for 6 days. Control mice were treated with vehicle (0.25% Carboxymethylcellulose; dose 10 ml/kg). The test compounds were administered orally to Guinea pigs at 0.3 to 30 mg/kg/day dose for 6 days. Control animals were treated with vehicle (0.25% Carboxymethylcellulose; dose 5 ml/kg).
The blood samples were collected in fed state 1 hour after drug administration on 0 and 6 day of treatment. The blood was collected from the retro-orbital sinus through heparinised capillary in EDTA containing tubes. After centrifugation, plasma sample was separated for triglyceride and total cholesterol (Wieland, O. Methods of Enzymatic analysis. Bergermeyer, H. O., Ed., 1963. 211-214; Trinder, P. Ann. Clin. Biochem. 1969. 6: 24-27). Measurement of plasma triglyceride, total cholesterol and HDL were done using commercial kits (Dr. Reddy's Diagnostic Division, Hyderabad, India).
(§1) 1. Percent reduction in Blood sugar/triglycerides/total cholesterol were calculated according to the formula: [formula]

Series [3] addresses T2, hPPARγ1 (Homo sapiens, UniProt P37231).
T2 construct: expressed in transfected cells; host or cells: HEK-293
T2 sequence (P37231 238-503 limits assumed): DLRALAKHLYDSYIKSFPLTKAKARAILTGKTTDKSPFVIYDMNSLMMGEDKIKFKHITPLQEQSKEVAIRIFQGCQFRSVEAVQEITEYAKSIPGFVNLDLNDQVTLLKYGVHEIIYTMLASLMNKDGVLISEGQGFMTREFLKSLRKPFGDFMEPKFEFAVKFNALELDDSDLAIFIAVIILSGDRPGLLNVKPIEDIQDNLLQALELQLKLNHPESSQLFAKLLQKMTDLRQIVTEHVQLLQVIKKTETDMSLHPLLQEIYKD
The series is described as follows: Determination of hPPARγ activity (GAL4-LBD luciferase reporter in HEK-293 cells). The format is cell-based. To be noted: 1 μM compound, transfected HEK-293 cells. How it is done:
b) Determination of hPPARγ Activity
Ligand binding domain of hPPARγ1 was fused to DNA binding domain of Yeast transcription factor GAL4 in eucaryotic expression vector. Using lipofectamine (Gibco BRL, USA) as transfecting reagent HEK-293 cells were transfected with this plasmid and a reporter plasmid harboring the luciferase gene driven by a GAL4 specific promoter. Compound was added at 1 μM concentration after 48 hrs of transfection and incubated overnight. Luciferase activity as a function of drug binding/activation capacity of PPARγ1 was measured using Packard Luclite kit (Packard, USA) in Packard Top Count (Ivan Sadowski, Brendan Bell, Peter Broag and Melvyn Hollis. Gene. 1992. 118: 137-141; Guide to Eukaryotic Transfections with Cationic Lipid Reagents. Life Technologies, GIBCO BRL, USA).

A short description of series [4]: Single dose oral pharmacokinetic studies. It is filed as in vivo. To be noted: male Wistar rats, suspension in 0.25% sodium CMC. As to the method: Single Dose Oral Pharmacokinetic Studies
Male Wistar rats (220-250 gm) were used in the experiments. The animals were maintained under standard laboratory conditions and had free access to feed and water ad libitum. Before experimentation animals were fasted overnight (˜15 h) during which they had free access to water ad libitum.
An amount equivalent to 30 mg of drug was weighed accurately and transferred into a clean mortar and triturated to obtain a fine powder. To this 0.5 ml of 0.25% sodium carboxy methyl cellulose (sodium CMC) was added to obtain a paste. To the obtained paste remaining 2.5 ml of sodium CMC was added to make up the volume to 3 ml. Based on the animal weight appropriate volume (body weight×3) of the prepared suspension was administered through oral gavage.
After dosing, at designated time points (0.5, 1, 2, 3, 5, 8, 12 and 24 h) 200 μl of blood was collected from retro orbital plexus into 0.5 ml eppendorff tubes containing EDTA (10 μl of 200 mg/ml solution in Milli Q water). Blood was centrifuged at 12,800 rpm for 5 min and obtained plasma and stored at −20° C. till further analysis.
100 μl plasma was transferred into a clean and dry centrifuge tube. To this internal standard (10 μl of 100 μg/ml) was added and extracted with 2 ml of extraction recovery solvent. The contents were vortexed for 2 min, followed by centrifugation for 10 min at 2800 rpm. Clear organic layer (2×0.75 ml) was separated and dried under nitrogen gas at 50° C. The residue was reconstituted with 150 μl of mobile phase and vortexed for 20 sec, from this 50 μl was injected onto HPLC column.
Pharmacokinetic parameters were calculated by non-compartmental model analysis. The peak plasma concentration (Cmax) and the corresponding time (Tmax) were directly obtained from the raw data. The area under the plasma concentration versus time curve up to the last quantifiable time point, AUC(0-t) was obtained by the linear and log-linear trapezoidal summation. The AUC(0-t) extrapolated to infinity (i.e., AUC(0-∞)) by adding the quotient of Clast/Kel, where Clast represents the last measurable time concentration and Kel represents the apparent terminal rate constant. Kel was calculated by the linear regression of the log-transformed concentrations of the drug in the terminal phase. The half-life of the terminal elimination phase was obtained using the relationship

For series [5], the system named is C57BL/KsJ-db/db mice. The series is described as follows: Blood sugar and triglyceride lowering in db/db mice. The note with it: dose 0.03 mg/kg, oral gavage daily for 6 days. It is filed as in vivo, mouse.
Excerpt: Mutation in colonies of laboratory animals and different sensitivities to dietary regimens have made the development of animal models with non-insulin dependent diabetes and hyperlipidemia associated with obesity and insulin resistance possible. Genetic models such as db/db and ob/ob (Diabetes, (1982)31(1): 1-6) mice and zucker fa/fa rats have been developed by the various laboratories for understanding the pathophysiology of disease and testing the efficacy of new antidiabetic compounds (Diabetes, (1983)32: 830-838; Annu. Rep. Sankyo Res. Lab. (1994).46:1-57). […]
The random blood sugar and triglyceride levels were measured by collecting blood (100 μl) through orbital sinus, using heparinised capillary in tubes containing EDTA which was centrifuged to obtain plasma. The plasma glucose and triglyceride levels were measured spectrometrically, by glucose oxidase and glycerol 3 PO4 oxidase/peroxidase enzyme (Dr. Reddy's Lab. Diagnostic Division Kits, Hyderabad, India) methods respectively.
The blood sugar and triglycerides lowering activities of the test compound was calculated according to the formula.
as §1

One may read the melting point as the temperature of the solid-liquid transition. Broadly, the AUC(0-inf) is total exposure, with the tail of the curve extrapolated. A higher AUC(0-inf) goes with more exposure. One may read the AUC(0-t) as the area under the concentration-time curve up to a stated or last time point. Low readings indicate low exposure, high ones high exposure. The term Cmax denotes the maximum level reached in the sampled fluid or tissue. As a reminder, the Tmax is the time from dosing to the highest level. For orientation: half-life means the time needed for the level to fall by half in the phase considered. A low value points to fast loss.

Structures can show the parent of a compound that is named as a salt.

In the case of `CCO[C@@H](Cc1ccc(OCCN2CCSc3ccccc32)cc1)C(=O)O` (as salt: salt) [Example 5, -Lysine salt of (−)-3-[4-[2-(3,4-dihydro-2H-1,4-benzothiazin-4-yl)ethoxy]phenyl]-2-ethoxy propanoic acid], the melting point was 142 to 144 °C.

In turn, `CCO[C@@H](Cc1ccc(OCCN2CCSc3ccccc32)cc1)C(=O)O` (as salt: salt) [Example 3, Dicyclohexylamine salt of (−)-3-[4-[2-(3,4-dihydro-2H-1,4-benzothiazin-4-yl)ethoxy]phenyl]-2-ethoxy propanoic acid] registered a melting point of 110 °C.

As for `CCO[C@@H](Cc1ccc(OCCN2CCSc3ccccc32)cc1)C(=O)O` [Example 5, -Lysine salt of (−)-3-[4-[2-(3,4-dihydro-2H-1,4-benzothiazin-4-yl)ethoxy]phenyl]-2-ethoxy propanoic acid], the “PPARα (luciferase activity)” value in series [1] stood at 3.5. Also, in series [2], the “Triglyceride Lowering (%)” value was found to be 46%. For the same compound, in series [3], the “PPARγ (luciferase activity)” value stood at 7.6.

Regarding `CCO[C@@H](Cc1ccc(OCCN2CCSc3ccccc32)cc1)C(=O)O` [Example 2, Metformin salt of (−)-3-[4-[2-(3,4-dihydro-2H-1,4-benzothiazin-4-yl)ethoxy]phenyl]-2-ethoxy propanoic acid], the Ke1 in series [4] is 0.17 ± 0.03 h⁻¹. In addition, in series [4] (rat, plasma, 30 mg/kg), the AUC(0-inf) came out at 320 ± 36.2 µg·h/mL, the AUC(0-t) was determined as 315 ± 34.7 µg·h/mL, the concentration peaked (Cmax) at 77.2 ± 24.1 µg/mL and the Tmax was 0.63 ± 0.25 h. The compound also showed a half-life in series [4] (rat, plasma, 30 mg/kg) of 4.25 ± 0.86 h. Besides, the “PPARα (luciferase activity)” value in series [1] is given as 3.0. In addition, in series [5], the “Reduction in Blood Glucose Level (%)” value was 56% and the “Triglyceride Lowering (%)” value is 59%. Moreover, the “Triglyceride Lowering (%)” value in series [2] was determined as 55%. In series [3], the “PPARγ (luciferase activity)” value is 9.8.

`CCO[C@@H](Cc1ccc(OCCN2CCSc3ccccc32)cc1)C(=O)O` [Example 6, Amino guanidine hydrogen carbonate salt of (−)-3-[4-[2-(3,4-dihydro-2H-1,4-benzothiazin-4-yl)ethoxy]phenyl]-2-ethoxy propanoic acid]: in series [1], the “PPARα (luciferase activity)” value was 4.7. The “PPARγ (luciferase activity)” value in series [3] came to 21.

On to `CCO[C@@H](Cc1ccc(OCCN2CCSc3ccccc32)cc1)C(=O)O` (as salt: salt) [Example 2, Metformin salt of (−)-3-[4-[2-(3,4-dihydro-2H-1,4-benzothiazin-4-yl)ethoxy]phenyl]-2-ethoxy propanoic acid], for which the melting point was 155 to 158 °C.

As to `CCO[C@@H](Cc1ccc(OCCN2CCSc3ccccc32)cc1)C(=O)O` [Example 3, Dicyclohexylamine salt of (−)-3-[4-[2-(3,4-dihydro-2H-1,4-benzothiazin-4-yl)ethoxy]phenyl]-2-ethoxy propanoic acid], the “PPARα (luciferase activity)” value in series [1] is 5.2. Further, the “PPARγ (luciferase activity)” value in series [3] came to 19.

Consider `CCO[C@@H](Cc1ccc(OCCN2CCSc3ccccc32)cc1)C(=O)O` (as salt: salt) [Example 1], for which the melting point is 126 to 128 °C.

For `CCO[C@@H](Cc1ccc(OCCN2CCSc3ccccc32)cc1)C(=O)O` [Example 1], the “Triglyceride Lowering (%)” value in series [2] came out at 66%.

Regarding `CCOC(Cc1ccc(OCCN2CCSc3ccccc32)cc1)C(=O)O` (stereo in doubt) [Example 4, (R)-(+)-Methyl benzylamine salt of (−)-3-[4-[2-(3,4-dihydro-2H-1,4-benzothiazin-4-yl)ethoxy]phenyl]-2-ethoxy propanoic acid], in series [2], the “Triglyceride Lowering (%)” value is on record as 55%.
